{"source": "patent US5837686A", "about": "“Peptides and antibodies for treatment of rheumatoid arthritis” (Peptide Therapeutics Limited, priority 1991, dated 1998)", "key": {"[1]": {"tested_on": "alternative complement (C3) pathway", "experiment": "Inhibition of C3-activation (IgA-α1 AT complex activation of alternative complement pathway, rabbit RBC lysis)", "assay_type": "biochemical, human", "details": "for C' minimum: Table 6, minimum concentration needed to prevent C3 activation", "description": "Various peptides were tested for their ability to prevent the IgA-α1 AT complex from activating the alternative complement (C3) pathway. […] This method was based on the method described by Riches and Stanworth, Immunology Letters, 1980, 1, 363,366, with modification to miniaturise it thus allowing the assay to be carried out on microtitre plates. The initial observation by […] and Ishizaka (J Immunol. […] The non-immune complex IgA-α1 AT had been shown in the past to be the only known soluble complex to activate the alternative pathway complement and inhibit the lysis of the rabbit erythrocytes. This inhibition required biologically active complex. […] Positive and negative controls, serum only controls and serum plus IgA-α1 AT complex controls were included in the assay. 25 μl of a suitable dilution of IgA-α1 AT complex (see (iii) above) was added to the test wells and the plates were centrifuged at 2000 rpm for 1 minute. The plates were then incubated at 37° C. for 11/2 hours. 50 μl of a suitable serum dilution (see (a) above) was added and the plates centrifuged at 2000 rpm for 10 minute, then incubated at 37° C. for 30 minutes. 50 μl of 1% rabbit RBC was added and after a further 30 minutes of 37° C. incubation, the plates were centrifuged at 2000 rpm for 10 minutes. Supernatants were taken as previously. The mean values of each of the serum(s), serum and complex (c+s) and total haemolysis wells were calculated. The % haemolysis with respect to lysis by serum wells was calculated. The peptide was considered to have titred out when % lysis value was equal to the calculated % lysis value given by the c+s mean. The titre point for the peptide was calculated as the concentration in μM of the peptide that just gave greater lysis than the c+s mean value."}, "[2]": {"tested_on": "IgA-α1 AT complex", "experiment": "HPLC analysis of dissociation of purified IgA-α1 AT complex in vitro", "assay_type": "biochemical, human", "details": "for HPLC minimum: Table 6, minimum concentration giving complex: free IgA ratio of 20%, >500 = no dissociation at highest concentration tested; for anti-complex activity (in words): summary statements after Tables 2-6", "description": "The ability of the peptides of the invention to dissociate purified IgA-α1 AT complex in vitro was tested as described below. The anti-rheumatic drug D-penicillamine and other synthetic peptides were used as controls. […] The sample was monitored at wavelength 206 nm at a flow rate of 1 ml/minute with phosphate buffer (0.1M) pH 7.1. They represent the ability of the peptides to dissociate the IgA-α1 AT complex in vitro. In these experiments, the base-lines level comprises a complex: free IgA ratio of 14%. The minimum concentration of peptide taken to produce a positive dissociation effect is that which results in a complex: free IgA ratio at 20%. In the results tables, all the peptide values are expressed in μMoles."}}, "note": "Ends that are not written are not given here.", "data": [{"compound": "N[C@@H](CS)C(=O)O", "note": "[Cysteine]", "values": [{"measurement": "C' minimum", "setting": "[1]", "result": 16, "unit": "µM"}, {"measurement": "HPLC minimum", "setting": "[2]", "result": 250, "unit": "µM"}]}, {"compound": "N[C@@H](CCC(=O)N[C@@H](CS)C(=O)NCC(=O)O)C(=O)O", "note": "[Glutathione]", "values": [{"measurement": "C' minimum", "setting": "[1]", "result": 31, "unit": "µM"}, {"measurement": "HPLC minimum", "setting": "[2]", "result": 500, "unit": "µM"}, {"measurement": "anti-complex activity (in words)", "setting": "[2]", "result": "relatively inactive"}]}, {"compound": "Substance P (RPKPQQFFGLM; ends and bridges not checked; UniProt P20366 58-68, looked up) [control peptide of Group 6]", "values": [{"measurement": "C' minimum", "setting": "[1]", "result": "> 500", "unit": "µM"}, {"measurement": "HPLC minimum", "setting": "[2]", "result": "> 500", "unit": "µM"}]}, {"compound": "HGCGGGGnh2 [Peptide 168]", "values": [{"measurement": "C'", "setting": "[1]; Table 1, minimum concentration of peptide needed to prevent C3 activation", "result": 8, "unit": "µM"}, {"measurement": "HPLC %", "setting": "[2]; Table 1, minimum peptide concentration giving complex: free IgA ratio of 20% (base-line 14%), 90 minutes at 37° C.", "result": 10, "unit": "µM"}]}, {"compound": "CC(=O)N[C@@H](CS)C(=O)O", "note": "[N-acetyl Cysteine]", "values": [{"measurement": "C' minimum", "setting": "[1]", "result": 4, "unit": "µM"}, {"measurement": "HPLC minimum", "setting": "[2]", "result": 500, "unit": "µM"}, {"measurement": "anti-complex activity (in words)", "setting": "[2]", "result": "relatively inactive"}]}, {"compound": "CC(C)(S)[C@@H](N)C(=O)O", "note": "[D-Penicillamine]", "values": [{"measurement": "C' minimum", "setting": "[1]", "result": 31, "unit": "µM"}, {"measurement": "HPLC minimum", "setting": "[2]", "result": 250, "unit": "µM"}]}]}
